In PubChem BioAssay AID977630 (Broad Institute, 2014):
Records with an inconclusive call do not appear. Active and inactive are the calls of the source.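 The calls were made as follows: active = Normal-ribosome green reporter loss at least double humanized-ribosome red reporter loss, with overall culture growth inhibition under a set limit; inconclusive = no clear call, values can overlap the other calls; inactive = the rest.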

System: E. coli wild-type GFP growth, mixed culture, 24 h
Assay: growth inhibition of wild-type GFP E. coli, H38-humanized RFP comparator, dose response, H38 mutant RFP vs wild-type GFP, cherry-pick (AID 977630);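 also: wild-type GFP strain mixed equally with humanized-ribosome H38 mutant expressing RFP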
[1] = E. coli mixed culture total OD600 growth, 24 h

SMILES	AC50 [1]	AC50
Cc1cccc(NC(=O)c2sc3nc(-c4ccccc4)cn3c2C)n1	> 100 µM	
CCCNc1ccc(C(=O)OCC)cc1[N+](=O)[O-]	> 100 µM	> 100 µM (inactive)
CSc1ccc(CN(C)CC(=O)NC(C)c2ccccc2)cc1 (stereo unspecified)	> 100 µM	
COC(=O)CC#C[C@H](C)[C@@H](NS(=O)(=O)c1ccc([N+](=O)[O-])cc1)C(C)(C)C		> 100 µM (inactive)
COCC(C)NC(=O)c1nn(Cc2ccccc2)c(=O)c2ccccc12 (stereo unspecified)	> 100 µM	> 100 µM (inactive)
O=c1[nH]nc(SCc2ccccc2)n1C1CC2C=CC1C2 (stereo unspecified)	49.8 µM	> 100 µM (inactive)
COC(=O)c1ccc(OS(=O)(=O)c2ccc(NC(C)=O)cc2)cc1	> 100 µM	> 100 µM (inactive)
Cc1noc(C)c1COc1cccc(C(=O)N2CCc3ccccc32)c1		> 100 µM (inactive)
O=C(NCCCCc1ccccc1)c1cccc(NC(=O)C2CCCCC2)c1	> 100 µM	> 100 µM (inactive)
COc1cccc(CC(=O)OC(C)C(=O)NCc2ccc3c(c2)OCO3)c1 (stereo unspecified)		> 100 µM (inactive)
O=C(c1ccc(-n2cccn2)cc1)N1CCc2ccccc2C1		> 100 µM (inactive)
CC(C)(C)N(Cc1ccccc1)C(=O)COC(=O)Cn1cnc2ccccc2c1=O		> 100 µM (inactive)
COc1ccc(OC)c(NC(=O)CN(C)CC(=O)Nc2ccccc2Br)c1		> 100 µM (inactive)
O=C(COC(=O)C1CC1)Nc1nc(-c2ccc(F)c(F)c2)cs1		> 100 µM (inactive)
Cc1cccc(Oc2ccc(NC(=O)c3ccccc3C(=O)O)cc2)c1		> 100 µM (inactive)
O=C(c1cccs1)c1c[nH]cc1-c1ccccc1	> 100 µM	
O=C(COC(=O)C1CC2C=CC1C2)Nc1ccc([N+](=O)[O-])cc1 (stereo unspecified)	> 100 µM	> 100 µM (inactive)
CC(=O)Nc1ccc(-c2ccnc3c2CC(C)(C(=O)Nc2ccc4c(c2)OCO4)O3)cc1 (stereo unspecified)		> 100 µM (inactive)
COC(=O)c1cc(C(=O)c2c(C)cc3ccccn23)cc([N+](=O)[O-])c1	> 100 µM	
O=C(Nc1cccnc1)c1ccc([N+](=O)[O-])o1		> 100 µM (inactive)
Cc1noc(NS(=O)(=O)c2ccc(NC(=O)c3cc(-c4ccccc4Cl)nc4ccccc34)cc2)c1C	> 100 µM	> 100 µM (inactive)
Fc1ccc(-c2nc3ccc(Cl)cn3c2Cc2cccc(Cl)c2)cc1	> 100 µM	
CCOC(=O)c1c(C)[nH]c(C)c1S(=O)(=O)NCCN1CCN(c2ccccc2F)CC1	> 100 µM	
Cc1ccc(NC(=O)COC(=O)CCNS(=O)(=O)c2c(Cl)cccc2Cl)cc1	> 100 µM	

SMILES	AC50 [1]	AC50
Cc1[nH]nc2c1C(c1ccc(F)cc1)N(Cc1ccccc1)C2=O (stereo unspecified)	> 100 µM	> 100 µM (inactive)
CCN(CC)CCNC(=O)c1cc2cc3ccc(OC)cc3nc2o1		> 100 µM (inactive)
O=C(COc1cc(F)ccc1[N+](=O)[O-])NCCCc1ccccc1		> 100 µM (inactive)
COc1ccc(C2CC(c3cccs3)=Nc3ccccc3S2)cc1 (stereo unspecified)	> 100 µM	
CCCCOc1ccc(-c2nnn(CCC(=O)N3CCOCC3)n2)cc1	> 100 µM	
COc1ccc(CSc2nc3ccccc3c(=O)n2CCCN2CCOCC2)cc1F		> 100 µM (inactive)
CCOC(=O)C(CC)Sc1cc(C)nc2ccc(OC)cc12 (stereo unspecified)	> 100 µM	
CCOc1ccc(OCCn2c(=S)[nH]c3c(N)ncnc32)cc1		> 100 µM (inactive)
O=C(Nc1ccc(C(=O)Nc2ccccc2Cl)cc1)c1cccnc1		> 100 µM (inactive)
Cc1nnn(C23CC4CC(CC(CC(=O)Nc5ccc(C)c(C)c5)(C4)C2)C3)n1		> 100 µM (inactive)
N#Cc1nc(-c2ccco2)oc1NCc1ccccc1Cl	41.5 µM	> 100 µM (inactive)
Cc1cccc(C(=O)NCC(=O)NCCSc2ccc(Br)cc2)c1		> 100 µM (inactive)
Cc1ccc(SCC(=O)Nc2ccc(S(=O)(=O)Nc3nccs3)cc2)cc1		> 100 µM (inactive)
Cc1ccccc1-n1c([C@@H]2C[C@H]2c2ccccc2)n[nH]c1=S		> 100 µM (inactive)
CC(=O)N(CCC1(c2ccc(C)cc2)CCOC(C(C)C)C1)Cc1ccco1 (stereo unspecified)		> 100 µM (inactive)
Cc1ccc(S(=O)(=O)N2CCCCC2C(=O)N2CCN(c3ccccc3F)CC2)cc1 (stereo unspecified)	> 100 µM	
CC(C)(CC(=O)O)CC(=O)NCc1c(Cl)cccc1Sc1ccc(Cl)cc1		> 100 µM (inactive)
Nc1nc(Nc2ccccc2F)nc(N2CCOCC2)c1[N+](=O)[O-]		> 100 µM (inactive)
Nc1ccc(C(=O)Nc2ccc3nc(-c4ccncc4)[nH]c3c2)cc1	> 100 µM	
S=c1nc(-c2cccc(Br)c2)[nH][nH]1	> 100 µM	
FC(F)(F)c1ccc(Cl)c(-n2c(Cc3cccs3)n[nH]c2=S)c1		> 100 µM (inactive)
O=C(Nc1ccc(Br)cc1)c1cccnc1N1CCCCC1	> 100 µM	
CS(=O)(=O)c1ccc(Cl)c(NC(=O)CSc2nncn2-c2ccccc2)c1		> 100 µM (inactive)
COc1ccc(OC)c(NC(=O)COC(=O)C2CCN(C(=O)c3ccc(Cl)cc3)CC2)c1		> 100 µM (inactive)

SMILES	AC50 [1]	AC50
O=C1c2ccccc2CSc2c(O)cccc21	50.8 µM	> 100 µM (inactive)
Cc1c(Cc2ccccc2)sc(NC(=O)Cc2ccccc2)c1C(N)=O		> 100 µM (inactive)
CC(=O)N1CCN(c2nc(-c3cccs3)nc3ccccc23)CC1		> 100 µM (inactive)
O=C(CCCn1c(=S)[nH]c2ccsc2c1=O)Nc1ccc2c(c1)OCCO2	> 100 µM	> 100 µM (inactive)
COc1ccc2nc(SCC(=O)Nc3ccccc3)[nH]c2c1	> 100 µM	> 100 µM (inactive)
CCOC(=O)C1(CCCc2ccccc2)CCN(C(=O)CCn2cncn2)CC1		> 100 µM (inactive)
CN1CCN(c2nc(Nc3ccc(O)cc3)nc3ccccc23)CC1		> 100 µM (inactive)
COc1ccc(NC(=O)c2cccs2)cc1C(=O)N1CCN(c2ccccc2)CC1		> 100 µM (inactive)
Cc1ccc(NS(=O)(=O)c2ccc3c(c2)CCC(=O)N3)cc1C		> 100 µM (inactive)
COc1ccccc1Cc1c(-c2ccc(F)cc2)nc2ccc(Br)cn12		> 100 µM (inactive)
Cc1cc(CNC(=O)c2cc(-c3ccccc3)nc3ccccc23)nn1C		> 100 µM (inactive)
CCOCCCNC(=O)C(NC(=O)c1ccccc1O)c1ccc(C)cc1 (stereo unspecified)	> 100 µM	> 100 µM (inactive)
CCN(CC)S(=O)(=O)c1cccc(NC(=O)CNc2cccc(S(=O)(=O)N3CCCC3)c2)c1		> 100 µM (inactive)
CSc1ncc(CN2CCCC(C(=O)c3cccc(Cl)c3)C2)cn1 (stereo unspecified)	> 100 µM	> 100 µM (inactive)
CC(=O)Nc1nc(C)c(-c2csc(Nc3ccccn3)n2)s1		> 100 µM (inactive)
Cc1nc(SCC(=O)Nc2ccc3c(c2)OCCO3)nc(C)c1C	> 100 µM	> 100 µM (inactive)
CCCc1nc2oc3c(NCCCN(C)C)ncnc3c2c2c1CCCC2	> 100 µM	> 100 µM (inactive)
Cc1ccc(-c2cc(-c3ccc(C)cc3)[n+](-c3ccc(C(=O)[O-])cc3)c(-c3ccc(C)cc3)c2)cc1		> 100 µM (inactive)
CCN(CC)S(=O)(=O)c1ccc(N2CCCC2)c(NC(=O)c2ccccc2OC)c1	> 100 µM	
Cc1ccc(Cl)cc1N1CCN(C(=O)c2ccc3nc[nH]c3c2)CC1		> 100 µM (inactive)
Cc1ccccc1Nc1c(-c2cccnc2)nc2ccc(Br)cn12	> 100 µM	
O=S(=O)(NCc1ccc2c(c1)OCO2)c1ccc2c(c1)oc1ccccc12	27.2 µM	> 100 µM (inactive)
CCOc1ccccc1NC(=O)c1cc(SC)ccc1Cl		> 100 µM (inactive)
COc1ccc(C(NC(=O)C2CCN(CCOc3ccc(Cl)cc3Cl)CC2)c2ccccc2C)cn1 (stereo unspecified)	> 100 µM	

SMILES	AC50 [1]	AC50
Cc1onc(-c2ccccc2Cl)c1C(=O)Nc1ccc(Cl)cn1		> 100 µM (inactive)
O=S1(=O)N[C@H](Cc2ccccc2)COc2cccc(N3CCC[C@H]3CO)c21		> 100 µM (inactive)
O=C(CCNC(=O)c1ccco1)Nc1cccc(Br)c1		> 100 µM (inactive)
Cc1ccc(S(=O)(=O)NCc2c(-c3ccccc3)noc2C)cc1		> 100 µM (inactive)
O=C1OC[C@@H]2CCCN2C(=O)[C@@H](CC(=O)N(CCO)Cc2ccccc2)C/C=C\C[C@H]1Cc1ccc(F)cc1		> 100 µM (inactive)
COc1ccc(N(C)S(=O)(=O)c2cccc(C(=O)NC3CCCCC3C)c2)cc1 (stereo unspecified)		> 100 µM (inactive)
O=C(CCC1CCCN(C(=O)c2ccsc2)C1)N1CCN(c2ccccn2)CC1 (stereo unspecified)		> 100 µM (inactive)
Cc1cccc(NC(=O)c2c(C)nn(-c3ccccc3)c2Cl)c1	41.6 µM	
Cc1cc(C(=O)NCCC2=CCCCC2)ccc1[N+](=O)[O-]		> 100 µM (inactive)
COc1cccc(NC(=O)CSc2nc3c(sc4ccccc43)c(=O)n2CCN(C)C)c1		> 100 µM (inactive)
C=CCN(c1ccccc1)S(=O)(=O)c1ccc(Cl)c(C(=O)OCC(=O)NCCCN2CCCC2=O)c1	> 100 µM	
Cc1ccc2c(N)c(C(=O)c3ccccc3)sc2n1	> 100 µM	
CCn1c(-c2ccccc2Cl)nn(CC(=O)Nc2ccccc2OC)c1=S	> 100 µM	> 100 µM (inactive)
CC1CCCN(C(=O)C(C)Nc2cc(Cl)ccc2N2CCOCC2)C1 (stereo unspecified)		> 100 µM (inactive)
CSc1nc2nc3c(cc2c(=O)n1-c1ccccc1C)CCCC3	> 100 µM	> 100 µM (inactive)
CNC(=O)c1ccsc1NC(=O)c1ccc(S(=O)(=O)N2CCc3ccccc32)cc1	> 100 µM	
CCC1(CC)NC(=O)N(CC(=O)N2N=C(c3ccc(Cl)cc3)CC2c2ccco2)C1=O (stereo unspecified)		> 100 µM (inactive)
Cc1nn2c(NCc3ccccn3)cc(C(C)C)nc2c1-c1ccccc1		> 100 µM (inactive)
COc1cccc(C(=O)Nc2nnc(S(=O)(=O)N(C)Cc3ccccc3)s2)c1	50.9 µM	> 100 µM (inactive)
CC(=O)Nc1ccc(S(=O)(=O)Nc2cccc(-c3nc4cc(C)ccc4o3)c2)cc1	> 100 µM	> 100 µM (inactive)
CCCC(=O)Nc1sc2c(c1C(=O)Nc1ccccn1)CCCC2	> 100 µM	> 100 µM (inactive)
CCNC(=O)C1(C)CCCN(Cc2cccc3ccccc23)C1 (stereo unspecified)		> 100 µM (inactive)
